Experiments:
[1] = target: T1, casein kinase 1 epsilon (CK1 epsilon) (Homo sapiens, UniProt P49674); test: Filter-plate assay of ATP-33P: inhibition of phosphorylation of casein by CK1 epsilon; type: biochemical; settings: casein substrate, 10 μM ATP, 2 hours at ambient temperature
T1 construct: Invitrogen Corporation (alternative)
Experimental: The capacity of the compounds of the invention to inhibit the phosphorylation of casein by casein kinase 1 epsilon and delta can be evaluated according to the procedure described in document US 2005/0131012.
Filter-Plate Assay of ATP-^33P for the Screening of CK1 Epsilon Inhibitors:
The effect of the compounds on inhibition of the phosphorylation of casein by the enzyme casein kinase 1 epsilon (CK1 epsilon) is measured using a casein assay with filtration of ATP-^33P in vitro.
Casein kinase 1 epsilon (0.58 mg/ml) is obtained via fermentation and purification processes carried out according to methods well known to those skilled in the art, or may also be obtained from Invitrogen Corporation™ (human CK1 epsilon).
The compounds are tested at five different concentrations so as to generate IC50 values, i.e. the concentration at which a compound is capable of inhibiting the enzymatic activity by 50%, or alternatively the % inhibition at a concentration of 10 micromolar.
“U”-bottomed Falcon plates are prepared by placing 5 μl of solutions of the compounds according to the invention at concentrations of 10, 1, 0.1, 0.01 or 0.001 μM in various wells. The solutions of the compounds according to the invention at these various concentrations are prepared by diluting in a test buffer (50 mM Tris, pH 7.5, […], 2 mM DTT and 1 mM EGTA) a stock solution in DMSO at a concentration of 10 mM. Next, 5 μl of dephosphorylated casein are added to a final concentration of 0.2 μg/μl, 20 μl of CK1 epsilon are added to a final concentration of 3 ng/μl, and 20 μl of ATP-^33P are added to a final concentration of 0.02 μCi/μl mixed with cold ATP (10 μM final—approximately 2×10^6 CPM per well). The final total test volume per well is equal to 50 μl.
The “U”-bottomed Falcon® test plate mentioned above is vortexed, and then incubated at ambient temperature for 2 hours. After 2 hours, the reaction is stopped by adding an ice-cold solution of 65 μl of cold ATP (2 mM) prepared in test buffer. 100 μl of the reaction mixture are then transferred from the “U”-bottomed Falcon®plate into Millipore MAPH filter plates, preimpregnated with 25 μl of ice-cold 100% TCA. […]
The plates are left to dry overnight at ambient temperature. […] The radiation emitted by each well is then measured for 2 minutes in a Packard® Topcount NXT scintillation counter, in which the values of CPM/well are measured.
The % inhibition of the capacity of the enzyme to phosphorylate the substrate (casein) is determined for each concentration of compound tested. These inhibition data expressed as percentages are used to calculate the IC50 value for each compound compared with the controls.
The kinetic studies determined the KM value for ATP as being 21 μM in this test system.

T1 sequence (P49674 whole entry): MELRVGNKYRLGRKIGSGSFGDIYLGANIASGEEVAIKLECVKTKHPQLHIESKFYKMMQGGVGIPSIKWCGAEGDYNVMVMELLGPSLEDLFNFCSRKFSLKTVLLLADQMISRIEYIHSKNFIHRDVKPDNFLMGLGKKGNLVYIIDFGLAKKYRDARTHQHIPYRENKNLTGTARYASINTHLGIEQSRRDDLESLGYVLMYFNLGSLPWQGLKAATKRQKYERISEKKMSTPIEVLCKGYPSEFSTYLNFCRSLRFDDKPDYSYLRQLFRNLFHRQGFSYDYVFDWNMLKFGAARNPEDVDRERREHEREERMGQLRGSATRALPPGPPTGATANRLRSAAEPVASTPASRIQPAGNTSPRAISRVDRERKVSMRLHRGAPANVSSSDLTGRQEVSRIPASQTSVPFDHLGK

Compound	melting point	IC50 [1]
OCCN1CCN(c2ccc3nc(-c4ccc(Cl)s4)c(-c4ccncc4)n3n2)CC1 [Compound 14, 2-{4-[2-(5-chlorothien-2-yl)-3-(pyridin-4-yl)imidazo[1,2-b]pyridazin-6-yl](piperazin-1-yl)}ethanol]	216 to 218 °C	0.019 µM
Cc1ccc(-c2nc3ccc(N4CCNCC4)nn3c2-c2ccncc2)s1 [Compound 10, 2-(5-methylthien-2-yl)-6-(piperazin-1-yl)-3-(pyridin-4-yl)imidazo[1,2-b]pyridazine]	–	0.087 µM
